Reference: ChEMBL document CHEMBL1201861, “Genomics of Drug Sensitity in Cancer screening data, Wellcome Trust Sanger Institute”

Assays:
Experiment in all cases: cells
RXF 393 = format: functional, cell-based; details: Homo sapiens;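 note: growth inhibition of human RXF 393 cells, read out with a cell viability assay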
Description: SANGER: Inhibition of human RXF393 cell growth in a cell viability assay.

NCI-H1155 = format: functional, cell-based; details: Homo sapiens;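 note: cell growth inhibition measured by a viability assay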
Description: SANGER: Inhibition of human NCI-H1155 cell growth in a cell viability assay.

HD-MY-Z = format: functional, cell-based, Homo sapiens; details: Homo sapiens, HD-MY-Z;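 note: growth inhibition of HD-MY-Z cells, read out with a cell viability assay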
Description: SANGER: Inhibition of human HD-MY-Z cell growth in a cell viability assay.

ML-2 = format: functional, cell-based; details: Homo sapiens;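 note: growth inhibition of ML-2 cells, measured with a cell viability readout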
Description: SANGER: Inhibition of human ML-2 cell growth in a cell viability assay.

Becker = format: functional, cell-based, Homo sapiens; details: Homo sapiens, Becker;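 note: growth inhibition of Becker cells, read out with a cell viability assay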
Description: SANGER: Inhibition of human Becker cell growth in a cell viability assay.

PC-14 = format: functional, cell-based, Homo sapiens; details: Homo sapiens, PC-14;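 note: cell viability assay measuring inhibition of PC-14 cell growth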
Description: SANGER: Inhibition of human PC-14 cell growth in a cell viability assay.

MMAC-SF = format: functional, cell-based, Homo sapiens; details: Homo sapiens, MMAC-SF;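 note: growth inhibition of human MMAC-SF cells, read out with a cell viability assay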
Description: SANGER: Inhibition of human MMAC-SF cell growth in a cell viability assay.

A4-Fuk = format: functional, cell-based; details: Homo sapiens;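 note: growth inhibition of A4-Fuk cells, read out by a cell viability assay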
Description: SANGER: Inhibition of human A4-Fuk cell growth in a cell viability assay.

PC-3 = format: functional, cell-based, Homo sapiens; details: Homo sapiens, PC-3;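 note: cell viability assay measuring growth inhibition of PC-3 cells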
Description: SANGER: Inhibition of human PC-3 cell growth in a cell viability assay.

UACC-62 = format: functional, cell-based, Homo sapiens; details: Homo sapiens, UACC-62;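 note: growth inhibition of human UACC-62 cells, read out by a cell viability assay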
Description: SANGER: Inhibition of human UACC-62 cell growth in a cell viability assay.

OE19 = format: functional, cell-based, Homo sapiens; details: Homo sapiens, OE19;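 note: growth inhibition of OE19 cells, measured through a cell viability read-out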
Description: SANGER: Inhibition of human OE19 cell growth in a cell viability assay.

TE-1 = format: functional, cell-based, Homo sapiens; details: Homo sapiens, TE-1;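 note: growth inhibition of the human TE-1 cell line, read out with a cell viability assay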
Description: SANGER: Inhibition of human TE-1 cell growth in a cell viability assay.

OCUB-M = format: functional, cell-based, Homo sapiens; details: Homo sapiens, OCUB-M;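 note: growth inhibition of the cancer cell line, read out through a cell viability assay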
Description: SANGER: Inhibition of human OCUB-M cell growth in a cell viability assay.

ES6 = format: functional, cell-based, Homo sapiens; details: Homo sapiens, ES6;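 note: growth inhibition of human ES6 cells, read out with a cell viability assay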
Description: SANGER: Inhibition of human ES6 cell growth in a cell viability assay.

RD = format: functional, cell-based, Homo sapiens; details: Homo sapiens, RD
Description: SANGER: Inhibition of human RD cell growth in a cell viability assay.

KARPAS-299 = format: functional, cell-based; details: Homo sapiens
Description: SANGER: Inhibition of human KARPAS-299 cell growth in a cell viability assay.

Hs-578T = format: functional, cell-based, Homo sapiens; details: Homo sapiens, Hs-578T
Description: SANGER: Inhibition of human Hs-578-T cell growth in a cell viability assay.

BHY = format: functional, cell-based, Homo sapiens; details: Homo sapiens, BHY;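 note: cell growth inhibition read out by a viability assay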
Description: SANGER: Inhibition of human BHY cell growth in a cell viability assay.

LU-99A = format: functional, cell-based, Homo sapiens; details: Homo sapiens, LU-99A;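 note: growth inhibition of LU-99A cells, read out with a cell viability assay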
Description: SANGER: Inhibition of human LU-99A cell growth in a cell viability assay.

SNU-C2B = format: functional, cell-based, Homo sapiens; details: Homo sapiens, SNU-C2B;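 note: cell viability readout used to measure compound-driven suppression of SNU-C2B cell proliferation, IC50 marking half-maximal growth inhibition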
Description: SANGER: Inhibition of human SNU-C2B cell growth in a cell viability assay.

SCC-9 = format: functional, cell-based, Homo sapiens; details: Homo sapiens, SCC-9;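 note: Read-out is a cell viability assay, with values giving inhibition of cell growth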
Description: SANGER: Inhibition of human SCC-9 cell growth in a cell viability assay.

OVCAR-5 = format: functional, cell-based, Homo sapiens; details: Homo sapiens, OVCAR-5;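 note: growth inhibition of human OVCAR-5 cells, read out with a cell viability assay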
Description: SANGER: Inhibition of human OVCAR-5 cell growth in a cell viability assay.

HuO-3N1 = format: functional, cell-based, Homo sapiens; details: Homo sapiens, HuO-3N1;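 note: cell viability readout used to measure how strongly compounds suppress proliferation of human HuO-3N1 cells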
Description: SANGER: Inhibition of human HuO-3N1 cell growth in a cell viability assay.

HCC1937 = format: functional, cell-based, Homo sapiens; details: Homo sapiens, HCC1937;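 note: growth inhibition measured with a cell viability read-out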
Description: SANGER: Inhibition of human HCC1937 cell growth in a cell viability assay.

LXF-289 cell line = format: functional, cell-based, Homo sapiens; details: Homo sapiens, LXF-289
Description: SANGER: Inhibition of human LXF-289 cell growth in a cell viability assay.

MCF7 = format: functional, cell-based, Homo sapiens; details: Homo sapiens, MCF7;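 note: growth inhibition of human MCF7 cells, read out with a cell viability assay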
Description: SANGER: Inhibition of human MCF7 cell growth in a cell viability assay.

DMS-79 = format: functional, cell-based; details: Homo sapiens;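 note: growth inhibition measured with a cell viability assay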
Description: SANGER: Inhibition of human DMS-79 cell growth in a cell viability assay.

COLO-678 = format: functional, cell-based, Homo sapiens; details: Homo sapiens, COLO-678
Description: SANGER: Inhibition of human COLO-678 cell growth in a cell viability assay.

KP-N-YS = format: functional, cell-based; details: Homo sapiens;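 note: cell viability assay measuring inhibition of cell line growth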
Description: SANGER: Inhibition of human KP-N-YS cell growth in a cell viability assay.

SW780 = format: functional, cell-based, Homo sapiens; details: Homo sapiens, SW780;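 note: growth inhibition of the cells, read out with a cell viability assay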
Description: SANGER: Inhibition of human SW780 cell growth in a cell viability assay.

DEL = format: functional, cell-based; details: Homo sapiens;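 note: growth inhibition of the human DEL cell line, read out with a cell viability assay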
Description: SANGER: Inhibition of human DEL cell growth in a cell viability assay.

EW-11 = format: functional, cell-based, Homo sapiens; details: Homo sapiens, EW-11;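 note: growth inhibition of human EW-11 cells, measured with a cell viability assay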
Description: SANGER: Inhibition of human EW-11 cell growth in a cell viability assay.

MG-63 = format: functional, cell-based, Homo sapiens; details: Homo sapiens, MG-63;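 note: growth inhibition of human MG-63 cells, read out with a cell viability assay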
Description: SANGER: Inhibition of human MG-63 cell growth in a cell viability assay.

LB2241-RCC = format: functional, cell-based, Homo sapiens; details: Homo sapiens, LB2241-RCC;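 note: cell viability assay measuring how strongly the cultured human renal carcinoma line is prevented from growing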
Description: SANGER: Inhibition of human LB2241-RCC cell growth in a cell viability assay.

HMV-2 cell line = format: functional, cell-based, Homo sapiens; details: Homo sapiens, HMV-2;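 note: growth inhibition of HMV-II cells, read out with a cell viability assay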
Description: SANGER: Inhibition of human HMV-II cell growth in a cell viability assay.

COR-L23 = format: functional, cell-based, Homo sapiens; details: Homo sapiens, COR-L23;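 note: cell viability assay measuring how strongly compounds suppress growth of COR-L23 cells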
Description: SANGER: Inhibition of human COR-L23 cell growth in a cell viability assay.

COLO-792 = format: functional, cell-based, Homo sapiens; details: Homo sapiens, COLO-792
Description: SANGER: Inhibition of human COLO-792 cell growth in a cell viability assay.

697 = format: functional, cell-based; details: Homo sapiens
Description: SANGER: Inhibition of human 697 cell growth in a cell viability assay.

NCI-H28 = format: functional, cell-based, Homo sapiens; details: Homo sapiens, NCI-H28;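 note: growth inhibition of human NCI-H28 cells, read out as cell viability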
Description: SANGER: Inhibition of human NCI-H28 cell growth in a cell viability assay.

LOX IMVI = format: functional, cell-based; details: Homo sapiens
Description: SANGER: Inhibition of human LOXIMVI cell growth in a cell viability assay.

A2058 = format: functional, cell-based; details: Homo sapiens;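 note: reduction of A2058 cell growth, read out with a viability assay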
Description: SANGER: Inhibition of human A2058 cell growth in a cell viability assay.

HEL = format: functional, cell-based, Homo sapiens; details: Homo sapiens, HEL;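 note: growth inhibition of HEL cells, read out with a cell viability assay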
Description: SANGER: Inhibition of human HEL cell growth in a cell viability assay.

SW48 = format: functional, cell-based, Homo sapiens; details: Homo sapiens, SW48;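 note: growth inhibition of SW48 cells, read out with a cell viability assay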
Description: SANGER: Inhibition of human SW48 cell growth in a cell viability assay.

647-V = format: functional, cell-based, Homo sapiens; details: Homo sapiens, 647-V;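 note: growth inhibition of 647-V cells, read out with a cell viability assay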
Description: SANGER: Inhibition of human 647-V cell growth in a cell viability assay.

NCI-H1650 = format: functional, cell-based, Homo sapiens; details: Homo sapiens, NCI-H1650;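 note: growth inhibition of human NCI-H1650 cells measured by a cell viability assay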
Description: SANGER: Inhibition of human NCI-H1650 cell growth in a cell viability assay.

K562 = format: functional, cell-based; details: Homo sapiens
Description: SANGER: Inhibition of human K-562 cell growth in a cell viability assay.

Calu-6 = format: functional, cell-based, Homo sapiens; details: Homo sapiens, Calu-6;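 note: growth of human Calu-6 cells, read out by a cell viability assay, IC50 marking inhibition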
Description: SANGER: Inhibition of human Calu-6 cell growth in a cell viability assay.

COLO-668 = format: functional, cell-based, Homo sapiens; details: Homo sapiens, COLO-668
Description: SANGER: Inhibition of human COLO-668 cell growth in a cell viability assay.

SW1463 = format: functional, cell-based, Homo sapiens; details: Homo sapiens, SW1463;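 note: growth inhibition of SW1463 cells, determined with a cell viability assay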
Description: SANGER: Inhibition of human SW1463 cell growth in a cell viability assay.

S-117 = format: functional, cell-based, Homo sapiens; details: Homo sapiens, S-117
Description: SANGER: Inhibition of human S-117 cell growth in a cell viability assay.

CAL-27 = format: functional, cell-based, Homo sapiens; details: Homo sapiens, CAL-27;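 note: Viability-based readout, IC50 reflecting inhibition of CAL-27 cell growth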
Description: SANGER: Inhibition of human CAL-27 cell growth in a cell viability assay.

NCI-H1355 = format: functional, cell-based, Homo sapiens; details: Homo sapiens, NCI-H1355;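 note: growth inhibition of human NCI-H1355 cells, read out by a cell viability assay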
Description: SANGER: Inhibition of human NCI-H1355 cell growth in a cell viability assay.

In the case of Cn1cc(C2=C(c3ccc(Cl)cc3Cl)C(=O)NC2=O)c2ccccc21 [SB-216763], the IC50 (RXF 393) is reported as over 10 µM, the IC50 (NCI-H1155) is reported as over 10 µM and the IC50 (HD-MY-Z) is reported as over 10 µM. It also gave an IC50 (ML-2) of over 10 µM, an IC50 (Becker) of over 10 µM and an IC50 (PC-14) of over 10 µM. For the same compound, the IC50 (MMAC-SF) was over 10 µM, the IC50 (A4-Fuk) was over 10 µM and the IC50 (PC-3) was over 10 µM. It also gave an IC50 (UACC-62) of over 10 µM, an IC50 (OE19) of over 10 µM and an IC50 (TE-1) of over 10 µM. For the same compound, the IC50 (OCUB-M) was over 10 µM, the IC50 (ES6) was over 10 µM and the IC50 (RD) was over 10 µM. It also gave an IC50 (KARPAS-299) of over 10 µM, an IC50 (Hs-578T) of over 10 µM and an IC50 (BHY) of over 10 µM. It also gave an IC50 (LU-99A) of over 10 µM, an IC50 (SNU-C2B) of over 10 µM and an IC50 (SCC-9) of over 10 µM. For the same compound, the IC50 (OVCAR-5) was over 10 µM, the IC50 (HuO-3N1) was over 10 µM and the IC50 (HCC1937) was over 10 µM. The IC50 (LXF-289 cell line) was over 10 µM, the IC50 (MCF7) was over 10 µM and the IC50 (DMS-79) was over 10 µM. For the same compound, the IC50 (COLO-678) was over 10 µM, the IC50 (KP-N-YS) was over 10 µM and the IC50 (SW780) was over 10 µM. For the same compound, the IC50 (DEL) was over 10 µM, the IC50 (EW-11) was over 10 µM and the IC50 (MG-63) was over 10 µM. The IC50 (LB2241-RCC) was 6.43 µM, the IC50 (HMV-2 cell line) was 7.68 µM and the IC50 (COR-L23) was over 10 µM. It also gave an IC50 (COLO-792) of over 10 µM, an IC50 697 of over 10 µM and an IC50 (NCI-H28) of over 10 µM. The IC50 (LOX IMVI) was over 10 µM, the IC50 (A2058) was over 10 µM and the IC50 (HEL) was over 10 µM. The IC50 (SW48) was over 10 µM, the IC50 (647-V) was over 10 µM and the IC50 (NCI-H1650) was over 10 µM. For the same compound, the IC50 (K562) was over 10 µM, the IC50 (Calu-6) was over 10 µM and the IC50 (COLO-668) was over 10 µM. The IC50 (SW1463) was over 10 µM, the IC50 (S-117) was over 10 µM and the IC50 (CAL-27) was over 10 µM. The IC50 (NCI-H1355) was over 10 µM.
For COC(=O)CNC(=O)C(=O)OC, the IC50 (RXF 393) was 1260 µM, the IC50 (NCI-H1155) was 1540 µM and the IC50 (HD-MY-Z) was 1480 µM. For the same compound, the IC50 (ML-2) was 178 µM, the IC50 (Becker) was 274 µM and the IC50 (PC-14) was over 4000 µM. For the same compound, the IC50 (MMAC-SF) was 881 µM, the IC50 (A4-Fuk) was 45 µM and the IC50 (PC-3) was 418 µM. The IC50 (UACC-62) was over 4000 µM, the IC50 (OE19) was over 4000 µM and the IC50 (TE-1) was 1010 µM. For the same compound, the IC50 (OCUB-M) was over 4000 µM, the IC50 (ES6) was 3540 µM and the IC50 (RD) was 692 µM. It also gave an IC50 (KARPAS-299) of 98 µM, an IC50 (Hs-578T) of 3120 µM and an IC50 (BHY) of 465 µM. The IC50 (LU-99A) was 197 µM, the IC50 (SNU-C2B) was over 4000 µM and the IC50 (SCC-9) was 122 µM. For the same compound, the IC50 (OVCAR-5) was 458 µM, the IC50 (HuO-3N1) was 701 µM and the IC50 (HCC1937) was 893 µM. It also gave an IC50 (LXF-289 cell line) of 260 µM, an IC50 (MCF7) of over 4000 µM and an IC50 (DMS-79) of over 4000 µM. It also gave an IC50 (COLO-678) of 2000 µM, an IC50 (KP-N-YS) of 1680 µM and an IC50 (SW780) of 133 µM. The IC50 (DEL) was 72.3 µM, the IC50 (EW-11) was 1050 µM and the IC50 (MG-63) was 144 µM. The IC50 (LB2241-RCC) was 537 µM, the IC50 (HMV-2 cell line) was over 4000 µM and the IC50 (COR-L23) was 1880 µM. It also gave an IC50 (COLO-792) of over 4000 µM, an IC50 697 of 229 µM and an IC50 (NCI-H28) of 1350 µM. For the same compound, the IC50 (LOX IMVI) was 344 µM, the IC50 (A2058) was 166 µM and the IC50 (HEL) was 197 µM. The IC50 (SW48) was 1990 µM, the IC50 (647-V) was 93.5 µM and the IC50 (NCI-H1650) was 329 µM. It also gave an IC50 (K562) of 2030 µM, an IC50 (Calu-6) of 732 µM and an IC50 (COLO-668) of 93.8 µM. It also gave an IC50 (SW1463) of 1780 µM, an IC50 (S-117) of 3860 µM and an IC50 (CAL-27) of over 4000 µM. It also gave an IC50 (NCI-H1355) of 274 µM.
